Measured values reported in patent US6455583B1, “Method for treating meibomian gland disease” (The University of Miami, priority 1998, dated 2002).
“And” between values parts separate entries of the source, which are not always exact repeats. Equal values may be shown once.

Legend:
IL-1RA = IL-1RA release by human corneal epithelial cell cultures; assay type: cell-based; conditions: 24 h, FIG. 7
Method: Media=negative control; LPS=cultures treated with lipopolysaccharide for 24 h; Doxy=cultures treated with doxycycline (5 μg/ml) for 24 h; CMT 3=cultures treated with chemically modified tetracycline CMT 3 (1 μg/ml) for 24 hr; Doxy+LPS=cultures treated with LPS and doxycycline (5 μg/ml) for 24 h; CMT 3+LPS=cultures treated with LPS and chemically modified tetracycline CMT 3 (1 μg/ml) for 24 hr.
IL-1RA has an anti-inflammatory effect by competing with the pro-inflammatory forms of IL-1 (IL-1α and IL-1β) for the type 1 receptor. […] Furthermore, the concentration of IL-1RA in corneal epithelial cultures stimulated with LPS and treated with either doxycycline or CMT-3 was greater than cultures exposed to LPS alone (FIG. 7). These findings indicate tetracyclines are anti-inflammatory due to their ability to stimulate IL-1RA release by the human corneal epithelium.

[1] = test system: patients with meibomian gland disease and delayed tear clearance; test: Topical 0.025% doxycycline solution in patients with meibomian gland disease and delayed tear clearance (Example 6); assay type: in vivo, human
Text: Tetracyclines and chemically modified tetracyclines for topical administration can be added to buffered and electrolyte balanced aqueous solutions, buffered and electrolyte balanced aqueous solutions with a lubricating polymer, mineral oil or petrolatum-based ointment, other oils, liposomes, cylcodextrins, sustained release polymers or gels in a range from 0.001 to 3% (weight per volume or weight per weight). These preparations can be administered to the preocular tear film or onto the eyelid skin or lid margin 1 to 6 times per day for a period up to the lifetime of the patient. For example, an eye drop solution comprising doxycycline as an active ingredient was prepared by dissolving pharmaceutical grade doxycycline hydrochloride powder in an electrolyte-balanced salt solution (BSS™, Alcon, Ft. Worth, Tex.) to a final concentration of 0.025%.
The solution was prepared as described herein.

pro-MMP9 = pro-MMP9 activity in supernatant of human corneal epithelial cultures (gelatin zymogram); assay type: cell-based; conditions: doxycycline 5·g/ml for 24 hours, compared to untreated cultures; FIG. 8
Method: FIG. 8 is a gelatin zymogram of human corneal epithelial cell supernatant: doxycycline treatment and MMP-3 activation. Lane Legend: (1) 92 kDa purified pro-MMP-9 standard (0.1 ng); (2) Corneal epithelial supernatant+50 μg/mL doxycycline; (3)Supernatant+50 μg/mL doxycycline+1.5 ng/μL MMP-3; (4) Supernatant+100 μg/mL doxycycline+1.5 ng/μL MMP-3; (5) Supernatant from cell culture pre-treated with doxycycline; (6) Supernatant from cell culture pre-treated with doxycycline+1.5 ng/μL MMP-3. Exposure of human corneal epithelial cultures to doxycycline (5·g/ml) for 24 hours decreased the level of pro-MMP9 activity in the supernatant by 70% compared to untreated cultures (FIG. 8). MMP-9 is the metalloproteinase responsible for initiating sterile corneal ulceration and it is also capable of cleaving precursor IL-1β into its mature form.

[2] = test system: patients with ocular rosacea; test: Topical oxytetracycline ointment in patients with meibomian gland disease associated with rosacea and delayed tear clearance (Example 5); assay type: in vivo, human; set-up: key to Clinical Response (per patient): Excellent response, complete or almost complete relief of symptoms.; Good response, symptoms moderately, but not completed relieved
Method: Eleven ( 11) patients with ocular irritation symptoms due to meibomian gland disease associated with rosacea and delayed tear clearance were treated with a commercially available oxytetracycline ointment (Terak, Akorn Pharmaceuticals) as a topical administration to the ocular surface or the eyelids. Seventy-three percent (73%) of these patients had complete resolution of irritation symptoms.

Structure (SMILES): NC(=O)C1=C(O)C[C@@H]2C[C@@H]3Cc4cccc(O)c4C(=O)C3=C(O)[C@]2(O)C1=O [CMT-3]
- concentration of IL-1RA in LPS-stimulated cultures compared to LPS alone (IL-1RA; LPS + doxycycline 5 μg/ml or CMT 3 1 μg/ml): greater
- release of IL-1RA into the media compared to untreated cultures (IL-1RA; doxycycline 5 μg/ml or CMT 3 1 μg/ml): significantly increased

Structure (SMILES): C[C@H]1c2cccc(O)c2C(=O)C2=C(O)[C@]3(O)C(=O)C(C(N)=O)=C(O)[C@@H](N(C)C)[C@@H]3[C@@H](O)[C@@H]21 [doxycycline]
- RESPONSE (per patient) ([1]; 0.025% topical doxycycline solution, one line per patient 1-11, diagnosis MGD, DTC): no effect
- patients with complete resolution of symptoms ([1]; topical solution (doxycycline eye drops), 11 patients): more than 90%
- decrease of the level of pro-MMP9 activity in the supernatant (pro-MMP9): 70%

Structure (SMILES): CN(C)[C@@H]1C(O)=C(C(N)=O)C(=O)[C@@]2(O)C(O)=C3C(=O)c4c(O)cccc4[C@@](C)(O)[C@H]3[C@H](O)[C@@H]12 [oxytetracycline]
- patients with complete resolution of (irritation) symptoms ([2]; topical ointment to ocular surface or eyelids, 11 patients): 73%
- patients who experienced burning from the medication ([2]; topical ointment, 11 patients, one of which ceased treatment): Three
- Clinical Response (per patient) ([2]; topical oxytetracycline ointment, one line per patient 1-11): G (3×) and E (8×)
- Comments (tolerability, per patient) ([2]; topical oxytetracycline ointment, per patient): mild burning
